Reference: patent US20190142953A1, “Dendrimer-Drug Conjugates, Hydrogel Compositions, and Methods” (Massachusetts Institute of Technology, priority 2016, published 2019)

Legend:
[1] = Release from dendrimer:dextran hydrogel scaffold; type: physicochemical
Text: The hydrogel matrix included a 10% solid content PAMAM dendrimer, generation 5, with 75% of the amines of its surface groups oxidized to alcohols (i.e., 32 amines and 96 alcohols), and a 10% solid content dextran aldehyde (10 kDa weight average molecule weight, with 50% oxidation to aldehydes).
Free doxorubicin was released in approximately 6 days, owing to the interactions between amine groups in the drug and aldehyde groups in the dextran. When amines in the doxorubicin structure were blocked with aconitic anhydride, the drug was released rapidly through the large pores of the hydrogel in 48 hours.

[2] = In vivo organ distribution after systemic and local delivery; parameters: species or system mice
Experimental: An analysis was conducted of the organ distribution of both the dendritic pro-drugs and free doxorubicin after local and systemic administration. Fluorescently labelled dendritic pro-drugs of Example 5 or free drug were injected systemically and their distributions were assessed after 24 hours.

[3] = test system: healthy mammary epithelial cells; assay: Cytocidal effect in healthy cells; type: cell-based; conditions: equivalent free doxorubicin concentration
Text: The next question studied was whether conjugated doxorubicin still maintained its cytotoxic effect.

[4] = test system: triple negative breast cancer (TNBC); assay: In vivo therapeutic efficacy, murine model of triple negative breast cancer
EGFR [5] = target: T1, EGFR (Homo sapiens, UniProt P00533); assay: EGFR pathway activation (EGFR phosphorylation) by Western Blot; type: cell-based
T1 construct: endogenous in cells; host or cells: MDA-MB-468
Text: EGFR signaling pathway is believed to induce growth, differentiation, migration, adhesion, and cell survival through various interacting signaling pathways. It is believed to be critical for the design of chemotherapeutic pro-drugs utilizing this receptor to ensure this pathway was not triggered, leading to further cancer cell proliferation and survival, which could counteract the effects of the chemotherapeutic drug.
Actin was used as an internal control in all gels.

EGFR [6] = target: T1, EGFR; assay: EGF/EGFmp competition for the receptor, EGFR activation by Western Blot; type: cell-based; conditions: mix of EGF and peptide, EGFR-overexpressing cancer cells
[7] = local in hydrogel scaffold, 72-hour post-implantation

COc1cccc2c1C(=O)c1c(O)c3c(c(O)c1C2=O)C[C@@](O)(C(=O)CO)C[C@@H]3O[C@H]1C[C@H](N)[C@H](O)[C@H](C)O1 [free doxorubicin, doxorubicin]
time to release from hydrogel [1]: approximately 6 days
circulating level in blood ([2]; after local delivery): No circulating drug or dendritic pro-drug were observed in the blood
level in blood (fluorescence) ([2]; after systemic administration): not statistically different than that of the untreated control
accumulation in other organs [2, 7]: no accumulation was observed in other organs
tumor accumulation, local therapy versus systemic administration [2, 7]: 5 times
accumulation in other organs (spleen, heart, lungs, liver, kidneys) ([2]; systemic injection, 24 hours): no significant accumulation was observed in any other organ
cell death [3]: over 90%
tumor shrinkage compared to untreated control ([4]; local in hydrogel, multiple doses (days 0, 11, 22), bioluminescence): 69%
tumor reduction compared to untreated control ([4]; systemic administration): did not exhibit significant tumor volume reduction

NH2—CGGGGAEYLR-COOH (H-CGGGGAEYLR-OH) [EGFmp, EGF mimicking peptide modified with four glycine residues terminated with a cysteine]
EGFR phosphorylation / pathway activation (EGFR [5]): none were observed
blocking of EGF-mediated EGFR activation (EGFR [6]): did not behave as an EGF antagonist
